Assay results from patent EP0298474B1, “Novel calcitonin derivative and salt thereof” (MITSUBISHI PETROCHEMICAL CO., LTD., priority 1987, dated 1992).
Positions of bridges follow the written chain, without caps; N, C: chain ends. Residues, ends and D or L forms follow the SMILES beside them.

Key:
[1] = biological activity assay according to the method of Japanese Provisional Patent Publication No. 123500/1985; type: in vivo
Protocol: The crude (Oct¹, Cys(CA)⁷)-CCT obtained was dissolved in a 1 M acetic acid (5 mg/ml) and purified by the reverse phase high performance liquid chromatography. Chemcopack ODS-H (trade name, ø: 10 mm x 250 mm) column produced by Chemco Co. was used, with the eluents employed being water (100) - 10 % TFA (1) for the eluent A and water (40) -acetonitrile (60) - 10 % TFA (1) for the eluent B, and the elution was effected under the linear concentration gradient from the eluent A to the eluent B. Here, the numerals within bracckets represent volume ratios. The fraction corresponding to (Oct¹, Cys(CA)⁷)-CCT was collected and lyophilized to obtain 2.8 mg of white powder. The biological activity of the white powder obtained was assayed according to the method as described in Japanese Provisional Patent Publication No. 123500/1985. […]

[2] = stability test in solution (heat treatment, remaining peak area by reverse phase HPLC); type: physicochemical; details: 0.1 M sodium citrate buffer (pH 6.0), 10 µg/ml, sealed tube at 80 °C for 24 hours; stated in words relative to Example 1
Protocol: The (Oct¹, Cys(CA)⁷)-CCT was dissolved in 0.1 M sodium citrate buffer (pH 6.0) to a concentration of 10 µg/ml. One ml of this solution was left to stand in a sealed tube at 80 °C for 24 hours. By analysis according to the reverse phase HPLC by use of the measurement conditions (1), the eluted peak area A of the remaining (Oct¹, Cys(CA)⁷)-CCT was determined. Similarly, the eluted peak area B of the (Oct¹, Cys(CA)⁷)-CCT in the sample solution not subjected to the heat treatment was determined, and the ratio of A to B (%) was defined as the index.

[3] = method of Japanese Provisional Patent Publication No. 123500/1985
[4] = stated in words relative to (Oct¹, Cys(CA)⁷)-CCT of Example 1

| Molecule | biological activity [1, 3] [MRC U/mg] | biological activity [1, 4] | stability (ratio of A to B (%), remaining peak area) [2] |
| --- | --- | --- | --- |
| CC(C)C[C@H](NC(=O)[C@H](CCCCN)NC(=O)CNC(=O)[C@H](CC(C)C)NC(=O)[C@@H](NC(=O)[C@@H]1CSSC[C@H](N)C(=O)N[C@@H](C)C(=O)N[C@@H](CO)C(=O)N[C@@H](CC(C)C)C(=O)N[C@@H](CO)C(=O)N[C@@H]([C@@H](C)O)C(=O)N1)C(C)C)C(=O)N[C@@H](CO)C(=O)N[C@@H](CCC(N)=O)C(=O)N[C@@H](CCC(=O)O)C(=O)N[C@@H](CC(C)C)C(=O)N[C@@H](Cc1c[nH]cn1)C(=O)N[C@@H](CCCCN)C(=O)N[C@@H](CC(C)C)C(=O)N[C@@H](CCC(N)=O)C(=O)N[C@H](C(=O)N[C@@H](Cc1ccc(O)cc1)C(=O)N1CCC[C@H]1C(=O)N[C@@H](CCCNC(=N)N)C(=O)N[C@H](C(=O)N[C@@H](CC(=O)O)C(=O)N[C@H](C(=O)NCC(=O)N[C@@H](C)C(=O)NCC(=O)N[C@H](C(=O)N1CCC[C@H]1C(N)=O)[C@@H](C)O)C(C)C)[C@@H](C)O)[C@@H](C)O [natural type CCT, reference compound] (H-CASLSTCVLGKLSQELHKLQTYPRTDVGAGTP-NH2; disulfide 1-7) | 4500 | – | – |
| (Oct¹, Ala³, Cys(CA)⁷)-CCT | 6100 | – | – |
| (Oct¹, Cys(Acm)⁷)-CCT | 5500 | – | – |
| (Oct¹, Cys(Acm)⁷)-ECT | 5400 | – | – |
| (Oct¹, Cys(CA)⁷)-CCT | 5400 | equal to that obtained in Example 1 | – |
| (Oct¹, Cys⁷)-CCT | – | substantially equal to those of (Oct¹, Cys(CA)⁷)-CCT of Example 1 | substantially equal to those of (Oct¹, Cys(CA)⁷)-CCT of Example 1 |
| (Oct¹, Thr³, Cys(CA)⁷)-CCT | 7800 | – | – |
| (pGlu¹, Cys(CA)⁷)-CCT | – | substantially equal to those of (Oct¹, Cys(CA)⁷)-CCT of Example 1 | substantially equal to those of (Oct¹, Cys(CA)⁷)-CCT of Example 1 |
